Test [1] has as its target T1, glucose-6-phosphate dehydrogenase (G6PDH) (Mus musculus, UniProt Q00612).
T1 construct: from tissue; host or cells: mouse tumor, blood, brain, heart, kidney, liver, lung, spleen (crude lysates)
Description: Glucose-6-phosphate dehydrogenase activity in tissues of treated mice (fluorescence NADPH assay). In kind it is in vivo. To be noted: 11 days i.p. twice per day, various organs. How it is done:
Blood samples from mice were taken (40 μl whole blood) serially or from mice sacrificed at the end of the experiment. Tissues, such as tumors (e.g. from implantation, xenograft, or arising spontaneously), brain, heart, kidney, liver, lung and spleen were taken and flash frozen in liquid nitrogen or on dry ice and stored in −80° C. until time of assay. Four volumes of cold lysis buffer (20 mM HEPES, pH 7.5, 1 mM EDTA, 0.2 g/l Triton X-100® and 0.2 g/L sodium deoxycholate, supplemented with 1 mM DTT and 1 mM PMSF just before use) were added to the blood, which was dissolved by vortexing. For blood that was frozen before coagulation, a clear lysate was obtained. […]
Each reaction was monitored for the appearance of NADH (for transketolase, alpha-ketoglutarate dehydrogenase, pyruvate dehydrogenase) or NADPH (for glucose-6-phosphate dehydrogenase) at room temperature in a fluorescent plate reader with excitation at 340 nm and emission at 470 nm in kinetic mode. The velocity was determined by the slope of the initial linear range of increasing fluorescence, expressed in fluorescent units (FU)/min. The protein concentration in the lysate was determined using Bradford assays (BioRad) with BSA as a standard. […]
We measured enzyme activity in an expanded panel of tissues from mice treated with N3PT or OxyT for 11 days i.p., twice per day. […]

The next test concerns the target T2, TK (Homo sapiens, UniProt P29401).
T2 sequence (P29401 1-623): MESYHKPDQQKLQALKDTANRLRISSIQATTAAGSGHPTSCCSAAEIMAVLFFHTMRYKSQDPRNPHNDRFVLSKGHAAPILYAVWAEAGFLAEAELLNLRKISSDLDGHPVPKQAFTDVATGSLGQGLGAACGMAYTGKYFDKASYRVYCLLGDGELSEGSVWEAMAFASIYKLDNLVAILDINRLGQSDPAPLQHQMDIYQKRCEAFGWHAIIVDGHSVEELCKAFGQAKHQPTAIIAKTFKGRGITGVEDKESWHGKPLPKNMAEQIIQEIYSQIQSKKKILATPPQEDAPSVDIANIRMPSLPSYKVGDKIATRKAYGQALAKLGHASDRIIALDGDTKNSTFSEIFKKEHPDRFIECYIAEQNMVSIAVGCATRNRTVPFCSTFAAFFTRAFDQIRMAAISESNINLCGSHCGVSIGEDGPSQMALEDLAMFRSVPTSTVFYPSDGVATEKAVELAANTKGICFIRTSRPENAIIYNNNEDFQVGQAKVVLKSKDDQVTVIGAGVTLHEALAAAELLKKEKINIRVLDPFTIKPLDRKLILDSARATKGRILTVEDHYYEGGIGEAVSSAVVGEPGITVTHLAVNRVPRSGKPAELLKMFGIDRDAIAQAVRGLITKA
In words: Thiamine competition and washout time course of TK inhibition in cells. In kind it is cell-based. Details: endogenous in cells; host or cells: HCT116. The following applies: HCT116 cells, TDM, thiamine 0-12 μM, 48 hours; 12 μM thiamine overcomes inhibition. As for the experimental part: HCT116 cells were plated in clear-bottomed 96-well culture plates, at a density of 8000 cells/well in TDM. The following morning, N3PT and different amounts of thiamine (12 μM, 2.4 μM, 0.48 μM, 0.096 μM, 0.0192 μM, 0 μM) were added to the cells. Forty-eight hours later, plates were inverted to remove media and blotted on paper towels to remove residual media. Plates were immediately assayed for enzymatic TK activity. 80 μl of lysis buffer was added to each well, and the cells incubated at RT for 10 min to allow cell lysis. After lysis, 20 μl of the aforementioned 5× reaction mix was added to each well to initiate the reaction. Reactions were monitored as described above.
Cells were plated in TDM media 24 hours earlier, different concentration of N3PT and 100 nM thiamine were added to the cells and treated for 48 hour to allow N3PT to exert its inhibitory effect (day 2; d2). The media was then changed to contain only 100 nM thiamine and one plate was assayed every day for the next five days (d3 to d7).

Structures are written as SMILES.

T1 sequence (Q00612 whole entry): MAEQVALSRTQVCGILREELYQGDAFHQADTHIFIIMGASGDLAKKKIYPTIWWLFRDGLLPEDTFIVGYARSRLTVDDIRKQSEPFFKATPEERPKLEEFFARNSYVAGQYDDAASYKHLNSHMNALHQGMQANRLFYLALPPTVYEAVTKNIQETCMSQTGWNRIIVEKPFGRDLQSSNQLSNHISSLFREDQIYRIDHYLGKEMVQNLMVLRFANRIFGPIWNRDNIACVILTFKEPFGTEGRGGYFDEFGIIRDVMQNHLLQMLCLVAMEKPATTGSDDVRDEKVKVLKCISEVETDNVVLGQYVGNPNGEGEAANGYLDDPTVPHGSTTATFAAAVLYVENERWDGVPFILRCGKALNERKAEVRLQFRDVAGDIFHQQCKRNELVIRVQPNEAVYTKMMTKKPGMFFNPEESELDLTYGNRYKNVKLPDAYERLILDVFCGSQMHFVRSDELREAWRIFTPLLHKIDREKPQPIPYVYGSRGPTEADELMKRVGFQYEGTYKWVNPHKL

For the compound `Cc1ccc(C[n+]2csc(CCO)c2C)c(N)n1` [N3PT, 3-[(2-amino-6-methyl-3-pyridinyl)methyl]-5-(2-hydroxyethyl)-4-methyl thiazolium], the “G6PDH enzymatic activity following treatment” value in test [1] was “no significant decrease”. For the same compound, the “Inhibition of TK in the presence of increased concentrations of thiamine” value on TK is reported as “reduced by thiamine in a concentration dependent manner”.

Source of the values: US20070292888A1, “Methods for Measuring Enzyme Activities in Cells, Blood, Tumors and Tissues” (GEN-PATH PHARMACEUTICALS, INC., priority 2004, published 2007).
